Patent US20100144652A1, “COMPOSITION COMPRISING A GLYCOLYTIC INHIBITOR AND A RING SYSTEM COMPRISING A SULPHAMATE GROUP FOR THE TREATMENT OF CANCER” (Sterix Limited, priority 2007, published 2010)
Entries after “also recorded” stand apart in the source; their conditions may differ. Where two headings read alike, the source gives them in different places.

What was measured:
[1] = cited from earlier work
steroid sulphatase = molecular target: T1, steroid sulphatase (Homo sapiens, UniProt P08842); conditions: compared with EMATE; cited from earlier work
T1 sequence (P08842 22-583): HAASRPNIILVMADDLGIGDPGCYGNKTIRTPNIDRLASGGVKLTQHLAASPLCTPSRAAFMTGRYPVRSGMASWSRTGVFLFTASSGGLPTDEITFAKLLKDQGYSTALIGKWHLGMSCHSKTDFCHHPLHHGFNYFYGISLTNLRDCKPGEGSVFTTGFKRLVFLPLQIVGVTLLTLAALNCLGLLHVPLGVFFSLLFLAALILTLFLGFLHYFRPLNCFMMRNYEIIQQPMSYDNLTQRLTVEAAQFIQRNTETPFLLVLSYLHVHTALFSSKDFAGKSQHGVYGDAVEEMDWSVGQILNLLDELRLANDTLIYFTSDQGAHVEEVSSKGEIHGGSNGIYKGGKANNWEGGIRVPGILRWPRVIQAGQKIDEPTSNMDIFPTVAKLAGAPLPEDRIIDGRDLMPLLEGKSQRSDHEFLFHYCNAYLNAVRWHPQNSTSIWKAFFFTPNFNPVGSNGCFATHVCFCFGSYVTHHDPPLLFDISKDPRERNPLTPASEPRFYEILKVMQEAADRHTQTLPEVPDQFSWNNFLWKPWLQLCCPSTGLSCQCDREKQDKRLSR

[2] = cited from earlier work; remark: listed apart in the source
von Willebrand's factor = von Willebrand's factor immunohistochemistry of xenograft sections (vessel density); assay type: in vivo, mice; conditions: sections of MCF-7 xenografts, STX140 5 mg/kg p.o. daily, 2DG 2 g/kg i.p. daily
MCF-7 cells [3] = test: Cell morphology (microscopy); assay type: cell-based; conditions: MCF-7, STX140 0.5 μM, 2DG 8 mM, 96 h, normoxia
Text: (§1) Cells were examined using a Zeiss inverted microscope fitted with a 20× and 40× Plan-Neofluor objective, and analysed through an Axiovision imaging system attached to the microscope.

LNCaP cells [4] = test: Cell morphology (microscopy); assay type: cell-based; conditions: STX140 0.5 μM, 2DG 8 mM, 96 h, normoxia
Text: as §1

MCF-7 cells [5] = test: Measurement of ATP (ATPlite assay); assay type: cell-based; conditions: for ATP levels: MCF-7, 72 h, normoxia or hypoxia, 2DG 8 mM, STX140 0.1 μM-1 μM, vs untreated normoxic controls
Protocol: (§2) An Innova co-48 CO2 humidified incubator (Newbrunswick Scientific, St. Albans, U.K.) was used to study the effects of 2DG and STX140 on cells under hypoxic conditions. Oxygen was maintained at 1%, CO2 5% and temperature at 37° C.
(§3) MCF-7 and LNCaP cells were seeded at 3000 cells/well or 5000 cells/well respectively, in 96 well plates. Compounds were added 4 hours following seeding of cells. The ATPlite assay procedure was carried out according to manufacturer's instructions (Perkin Elmer, Beaconsfield, U.K.) and ATP measured 72 hrs later using a FluoStar Optima Plate reader.

LNCaP cells [6] = test: Measurement of ATP (ATPlite assay); assay type: cell-based; conditions: 2DG 8 mM, 72 h; for ATP levels: normoxia or hypoxia, STX140 0.1 μM-1 μM, vs untreated normoxic controls
Protocol: as §2, §3

MCF-7 tumours = test: In vivo tumour xenograft model, MCF-7 cell tumours; conditions: athymic nude mice, STX140 5 mg/kg p.o. daily, 2DG 2 g/kg i.p. daily, 28 days, compared to control
Protocol: Intact, ovariectomized, athymic, female MF-1 nude mice (nu-/nu-) were purchased from Harlan (Bicester, Oxon, UK) at 5 weeks of age (˜20-25 g in weight). All experiments were carried out under conditions that complied with institutional guidelines. Animals were kept in a 12-hour light/12-hour dark cycle and given food and water ad libitum. Monolayers of MCF-7 cells were removed by trypsinization, and the resultant cell suspension was centrifuged for 5 min. at 1,000×g and then resuspended in ice-cold matrigel (BD Biosciences). Five million MCF-7 cells were injected s.c. into the right flank of the animals. The tumours were allowed to grow for 2 weeks, when the tumours reached 100-150 mm^3 in volume, mice were randomly divided into four treatment groups: 1) vehicle (10% tetrahydrofuran; 90% propylene glycol, […] oral)+saline i.p. 200 ml; 2) vehicle+2DG (2 g/kg) i.p. 200 ml; 3) STX140 (5 mg/kg) […] oral+saline i.p. 200 ml; 4) STX140 (5 mg/kg) […] oral+2DG (2 g/kg) i.p. 200 ml. All treatments were administered daily for 4 weeks, […]. Throughout the study, mice were weighed and tumour measurements were taken on a weekly basis. Tumour volumes were calculated using the formula: length×width^2/2. At the end of the study, tumours were collected for immunohistochemical analysis.

[7] = system: r^□ cells which have lost their mitochondrial DNA; conditions: Liu et al., 2001; cited from earlier work
MCF-7 cells [8] = test: Proliferation assay (Alamar blue, microtiter plate); assay type: cell-based; conditions: Homo sapiens; for inhibition at 8000 µM / inhibition at 0.5 µM: MCF7, 72 h; for inhibition at 8000 µM: MCF-7, 2DG alone 8 mM, 72 h, read-out: inhibition of cell growth
Protocol: (§4) MCF-7 and LNCaP cells were obtained from the American Tissue Culture Collection (ATCC). Cells were cultured in the following supplements, obtained from Sigma: RPMI 1640 with 10% foetal bovine serum, 1% L-glutamine, 1% MEM non-essential amino acids, 1% sodium bicarbonate solution, LNCaP cells also required 1% sodium pyruvate. Cells were maintained in an incubator at 37° C. under 5% CO2 and 95% air atmosphere.
(§5) MCF-7 and LNCaP cells were seeded at 3000 cells/well or 5000 cells/well respectively, in 96 well plates. Compounds were added 4 hours after seeding of cells. […]
as §2

LNCaP cells [9] = test: as above; assay type: cell-based; conditions: Homo sapiens; for inhibition at 8000 µM: 2DG alone 8 mM, read-out: inhibition of cell growth
Protocol: as §4, §5, §2

HUVEC cells = conditions: Newman et al., 2004; cited from earlier work
LNCaP cells [10] = conditions: previously calculated by Day and Newman, read-out: IC50, inhibition of proliferation; cited from earlier work
MCF-7 cells [11] = conditions: MCF-7, previously calculated by Day and Newman; read-out: IC50, inhibition of proliferation; cited from earlier work
p-glycoprotein = p-glycoprotein (Homo sapiens, UniProt P08183); conditions: Suzuki, 2003; cited from earlier work
p-glycoprotein, sequence (P08183 whole entry): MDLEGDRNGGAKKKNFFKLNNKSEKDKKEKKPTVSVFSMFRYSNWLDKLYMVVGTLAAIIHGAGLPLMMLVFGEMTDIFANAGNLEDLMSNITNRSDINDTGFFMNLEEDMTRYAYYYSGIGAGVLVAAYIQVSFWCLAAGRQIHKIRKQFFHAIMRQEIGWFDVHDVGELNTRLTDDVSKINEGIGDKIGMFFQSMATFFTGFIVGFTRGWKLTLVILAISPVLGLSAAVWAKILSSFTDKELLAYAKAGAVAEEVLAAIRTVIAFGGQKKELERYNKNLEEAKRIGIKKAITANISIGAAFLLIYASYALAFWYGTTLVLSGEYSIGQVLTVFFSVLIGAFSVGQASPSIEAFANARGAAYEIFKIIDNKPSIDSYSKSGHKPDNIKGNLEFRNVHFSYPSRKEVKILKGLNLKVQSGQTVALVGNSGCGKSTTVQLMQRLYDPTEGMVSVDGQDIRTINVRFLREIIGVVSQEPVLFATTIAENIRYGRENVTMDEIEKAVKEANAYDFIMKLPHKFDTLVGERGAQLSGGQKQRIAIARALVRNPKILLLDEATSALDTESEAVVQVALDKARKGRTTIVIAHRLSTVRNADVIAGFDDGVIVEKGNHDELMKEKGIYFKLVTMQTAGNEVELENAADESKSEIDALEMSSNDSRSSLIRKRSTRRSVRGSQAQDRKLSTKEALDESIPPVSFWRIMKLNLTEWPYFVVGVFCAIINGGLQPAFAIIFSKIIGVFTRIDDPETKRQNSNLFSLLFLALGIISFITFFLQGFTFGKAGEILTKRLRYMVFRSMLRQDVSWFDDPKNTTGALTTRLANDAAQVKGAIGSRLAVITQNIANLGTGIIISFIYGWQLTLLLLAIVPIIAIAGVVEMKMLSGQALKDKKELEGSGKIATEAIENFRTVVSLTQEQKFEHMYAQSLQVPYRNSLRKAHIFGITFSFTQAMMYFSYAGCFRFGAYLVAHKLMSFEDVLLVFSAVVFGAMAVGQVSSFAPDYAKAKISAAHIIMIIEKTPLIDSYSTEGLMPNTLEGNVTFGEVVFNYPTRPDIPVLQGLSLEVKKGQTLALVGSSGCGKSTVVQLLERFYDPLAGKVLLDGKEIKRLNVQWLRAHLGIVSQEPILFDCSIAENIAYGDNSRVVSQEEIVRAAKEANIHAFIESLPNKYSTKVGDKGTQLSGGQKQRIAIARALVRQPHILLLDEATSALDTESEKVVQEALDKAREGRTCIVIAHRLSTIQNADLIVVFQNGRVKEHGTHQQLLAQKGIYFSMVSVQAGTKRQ

vessel formation = conditions: novel co-culture model system, Newman et al., 2004; cited from earlier work
breast cancer cells = conditions: Raobaikady et al., 2003; cited from earlier work

For `COc1cc2c(cc1O)CC[C@@H]1[C@@H]2CC[C@]2(C)[C@@H](O)CC[C@@H]12` [2-MeOE2, 2-methoxyoestradiol, reference compound], the oral bioavailability ([1]; in vivo, po) is listed as “very poor oral bioavailability”.
In the case of `COc1cc2c(cc1OS(N)(=O)=O)CC[C@@H]1[C@@H]2CC[C@]2(C)C(=O)CC[C@@H]12` [2-methoxyoestrone-3-O-sulphamate], the “potency as steroid sulphatase inhibitor” value (steroid sulphatase) is listed as “equipotent with EMATE” and the oestrogenicity ([2]; rat, in vivo) is listed as “devoid of oestrogenicity”.
With `O=CC[C@@H](O)[C@H](O)[C@H](O)CO` [2DG, 2-deoxy-D-glucose] the “von Willebrand's factor staining for endothelial cells (blood vessels)” value (von Willebrand's factor) was “no significant effect”, the cell morphology (MCF-7 cells [3]) was “cells appear to swell up” and the cell morphology (LNCaP cells [4]) was “cells appear to swell up”. The “ATP per living cell” value (MCF-7 cells [5]; MCF-7, 2DG 8 mM, 72 h, vs untreated controls) was “significantly decreases ATP”, the ATP levels (MCF-7 cells [5]) was “decreases ATP” and the “ATP per living cell” value (LNCaP cells [6]; vs untreated controls) was “significantly decreases ATP”. For the same molecule, the ATP levels (LNCaP cells [6]) was “decreases ATP”, the “growth of MCF-7 tumours” value (MCF-7 tumours) was “did not significantly inhibit tumour growth” and the “sensitivity of cells lacking mitochondrial DNA relative to wt cells” value [7] was 10 times. It also gave an inhibition at 8000 µM (MCF-7 cells [8]; hypoxic) of 70%, an inhibition at 8000 µM (MCF-7 cells [8]; normoxic) of 50% and an IC50 (MCF-7 cells [8]; MCF7, 120 h, MCF-7, 5 day period, normoxic conditions, read-out: IC50, inhibition of proliferation) of 8.1 mM. For the same molecule, the inhibition at 8000 µM (LNCaP cells [9]; 72 h, hypoxic, 72 h) was 75%, the inhibition at 8000 µM (LNCaP cells [9]; 72 h, normoxic, 72 h) was 50% and the IC50 (LNCaP cells [9]; 120 h, 5 day period, normoxic conditions, read-out: IC50, inhibition of proliferation) was 6700 µM.
In the case of `C[C@]12CC[C@@H]3c4ccc(OS(N)(=O)=O)cc4CC[C@H]3[C@@H]1CCC2=O` [EMATE, oestrone-3-O-sulphamate], the “oral uterotrophic activity relative to estradiol” value ([2]; rats, oral) is given as 100 times.
For `COc1cc2c(cc1OS(N)(=O)=O)CCC1C2CC[C@]2(C)C(OS(N)(=O)=O)CCC12` (stereo partly shown) [STX140, 2-Methoxyestradiol-3,17-O,O-bis-sulfamate], the “inhibition of proliferation of HUVEC cells compared to 2-MeOE2” value (HUVEC cells) is given as 60 fold, the IC50 (LNCaP cells [10]) is given as 260 nM and the “von Willebrand's factor staining for endothelial cells (blood vessels)” value (von Willebrand's factor; 5 mg/kg) is given as “decrease in blood vessels; also recorded: significant reduction”. The IC50 (MCF-7 cells [11]) was 250 nM, the substrate for p-glycoprotein (p-glycoprotein) was “not a substrate for p-glycoprotein” and the cell morphology (MCF-7 cells [3]) was “shrivelled appearance”. The cell morphology (LNCaP cells [4]) was “shrivelled appearance”, the ATP levels (MCF-7 cells [5]) was “drops significantly” and the ATP levels (LNCaP cells [6]) was “drops significantly”. For the same molecule, the “activity as inhibitor of vessel formation compared to 2-MeOE2” value (vessel formation) was 10-13 times, the “potency as inhibitor of breast cancer cells compared to 2-MeOE2” value (breast cancer cells) was 6 times and the oral bioavailability ([1]; literature (Ireson 2004)) was “orally bioavailable”. The “growth of MCF-7 tumours” value (MCF-7 tumours; 5 mg/kg) was “significantly inhibited”, the inhibition at 0.5 µM (MCF-7 cells [8]; read-out: inhibition of cell proliferation, MCF-7, STX140 0.5 μM, hypoxia, 72 h, vs normoxic untreated controls) was 48% and the inhibition at 0.5 µM (MCF-7 cells [8]; read-out: inhibition of cell proliferation, MCF-7, STX140 0.5 μM, normoxia, 72 h, vs normoxic untreated controls) was 45%. It also gave an IC50 (LNCaP cells [9]; 72 h, read-out: IC50, inhibition of proliferation, LNCaP, hypoxic, 72 h) of 0.316 µM, an IC50 (LNCaP cells [9]; 72 h, read-out: IC50, inhibition of proliferation, LNCaP, normoxic, 72 h) of 0.293 µM and an inhibition at 0.5 µM (LNCaP cells [9]; 72 h, read-out: inhibition of cell proliferation) of 65%.
